# Reference: patent US20120225471A1, “Method for producing a composite material” (priority 2011, published 2012)
# Tested on: zygomycetes, ascomycetes and bacteria/yeast
# Experiment: Cotton burr substrate disinfection, all contaminant types
# Format: cell-based
# Conditions: 2.5 mL Tween 80 added to each PEO concentration; Fisher's Exact Test p=0.318, 0.499, 0.448 (zygomycetes, ascomycetes, bacteria/yeast)
# Experimental: Eight plant essential oils (cinnamon, clove, lemongrass, oregano, savory, spearmint, tea tree and thyme) were prepared with tap water in 600 ml Pyrex glass beakers in the following volumetric concentrations: 0.1, 0.5, 1.0, 1.5, 2.0% [v:v]. Twenty-four grams of a propriety cotton burr substrate was placed in a 25×25 cm square of tule mesh tied with a rubber band to make one bundle. Each concentration was tested in replicates of 5, by submersing each bundle in a beaker containing one of the plant essential (PEO) concentrations for three hours. Each beaker was placed under constant magnetic stirring at 300 rpm, to maintain the oil emulsion during the exposure period.
# The bundle was then opened within a laminar flow hood and three pieces of cotton burrs were transferred to five Petri plates each of Potato Dextrose Agar (PDA) and Tryptic Soy Agar (TSA).
# The submersion process was repeated for each PEO at the five concentrations over a period of three weeks. The number of ascomycete, zygomycete and bacteria/yeast colonies were recorded for each plate every 3 days for 15 days. […]
# Example 2 followed the same procedure as Example 1, but examined the efficacy of the five selected oil concentrations at the following exposure intervals: 30, 60, and 120 minutes. This analysis determined the minimum exposure time required for microbial inhibition on cotton burr substrate. […]
smiles,measurement,value
CCCCCCCC/C=C\CCCCCCCC(=O)OCCOCC(OCCO)C1OCC(OCCO)C1OCCO (stereo not shown) [Tween 80],frequency of contamination on substrate treated with the surfactant versus non-treated substrate,no significant difference
